Assay results taken from PubChem BioAssay AID2060495 (Molecular Pharmacology Branch, DTP, NCI, 2025).

System: 521955-158-R2-J5-PDC complex spheroid viability
Assay: Anticancer human tumor 521955-158-R2-J5-PDC patient-derived pancreatic carcinoma cell line growth inhibition [GQUAD]
Details: for IC50: curve of first compound; for viability, T/C: stronger effect = lower value
Summary of the method: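 Viability of tumor cells grown as complex spheroids with endothelial and stromal cells, exposed to drug combinations. Top concentration at or near clinical Cmax (else 10 microM), diluted in half-log increments.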

[1] = second compound 0.0316 µM, first compound 0.0316 µM
[2] = second compound 0.0316 µM, first compound 0.316 µM
[3] = second compound 0.1 µM, first compound 0.0316 µM
[4] = second compound 0.1 µM, first compound 0.316 µM
[5] = second compound 0.316 µM, first compound 0.0316 µM
[6] = second compound 0.316 µM, first compound 0.316 µM
[7] = second compound 1 µM, first compound 0.0316 µM
[8] = second compound 1 µM, first compound 0.316 µM
[9] = second compound 3.16 µM, first compound 0.0316 µM
[10] = second compound 3.16 µM, first compound 0.316 µM
[11] = second compound 10 µM, first compound 0.0316 µM
[12] = second compound 10 µM, first compound 0.316 µM
[13] = second compound 0.0316 µM, first compound 0.000999 µM
[14] = second compound 0.0316 µM, first compound 0.00316 µM
[15] = second compound 0.0316 µM, first compound 0.00999 µM
[16] = second compound 0.0316 µM, first compound 0.0999 µM
[17] = second compound 0.1 µM, first compound 0.000999 µM
[18] = second compound 0.1 µM, first compound 0.00316 µM
[19] = second compound 0.1 µM, first compound 0.00999 µM
[20] = second compound 0.1 µM, first compound 0.0999 µM
[21] = second compound 0.316 µM, first compound 0.000999 µM
[22] = second compound 0.316 µM, first compound 0.00316 µM
[23] = second compound 0.316 µM, first compound 0.00999 µM
[24] = second compound 0.316 µM, first compound 0.0999 µM
[25] = second compound 1 µM, first compound 0.000999 µM
[26] = second compound 1 µM, first compound 0.00316 µM
[27] = second compound 1 µM, first compound 0.00999 µM
[28] = second compound 1 µM, first compound 0.0999 µM
[29] = second compound 3.16 µM, first compound 0.000999 µM
[30] = second compound 3.16 µM, first compound 0.00316 µM
[31] = second compound 3.16 µM, first compound 0.00999 µM
[32] = second compound 3.16 µM, first compound 0.0999 µM
[33] = second compound 10 µM, first compound 0.000999 µM
[34] = second compound 10 µM, first compound 0.00316 µM
[35] = second compound 10 µM, first compound 0.00999 µM
[36] = second compound 10 µM, first compound 0.0999 µM
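Also: spheroids exposed to agents for one week before reading.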
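For viability, T/C in this document: 100% = DMSO vehicle control viability.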

**Q.** What does the source list for CC(=O)O[C@H]1C(=O)[C@@]2(C)[C@H]([C@H](OC(=O)c3ccccc3)[C@]3(O)C[C@H](OC(=O)[C@H](O)[C@@H](NC(=O)c4ccccc4)c4ccccc4)C(C)=C1C3(C)C)[C@]1(OC(C)=O)CO[C@@H]1C[C@@H]2O + Cc1[nH]c2ccc(F)cc2c1-c1nc2c3cccnc3c3ncccc3c2[nH]1?
**A.** IC50 (second compound 0.0316 µM): < 31.6 nM; IC50 (second compound 0.1 µM): < 31.6 nM; IC50 (second compound 0.316 µM): < 31.6 nM; IC50 (second compound 1 µM): < 31.6 nM; IC50 (second compound 3.16 µM): < 31.6 nM; IC50 (second compound 10 µM): < 31.6 nM; viability, T/C [1]: 46.1%; viability, T/C (second compound 0.0316 µM, first compound 0.1 µM): 34.1%; viability, T/C [2]: 31%; viability, T/C (second compound 0.0316 µM, first compound 1 µM): 30.8%; viability, T/C (second compound 0.0316 µM, first compound 3.16 µM): 30.8%; viability, T/C (second compound 0.0316 µM, first compound 10 µM): 25.6%; viability, T/C [3]: 49%; viability, T/C (second compound 0.1 µM, first compound 0.1 µM): 43.9%; viability, T/C [4]: 39%; viability, T/C (second compound 0.1 µM, first compound 1 µM): 31.2%; viability, T/C (second compound 0.1 µM, first compound 3.16 µM): 35.7%; viability, T/C (second compound 0.1 µM, first compound 10 µM): 29.9%; viability, T/C [5]: 47.6%; viability, T/C (second compound 0.316 µM, first compound 0.1 µM): 37.5%; viability, T/C [6]: 31.4%; viability, T/C (second compound 0.316 µM, first compound 1 µM): 27.5%; viability, T/C (second compound 0.316 µM, first compound 3.16 µM): 32.1%; viability, T/C (second compound 0.316 µM, first compound 10 µM): 24.2%; viability, T/C [7]: 43.6%; viability, T/C (second compound 1 µM, first compound 0.1 µM): 41.5%; viability, T/C [8]: 43.4%; viability, T/C (second compound 1 µM, first compound 1 µM): 31.5%; viability, T/C (second compound 1 µM, first compound 3.16 µM): 19.8%; viability, T/C (second compound 1 µM, first compound 10 µM): 33.5%; viability, T/C [9]: 38.7%; viability, T/C (second compound 3.16 µM, first compound 0.1 µM): 36.7%; viability, T/C [10]: 30.6%; viability, T/C (second compound 3.16 µM, first compound 1 µM): 32.5%; viability, T/C (second compound 3.16 µM, first compound 3.16 µM): 34.9%; viability, T/C (second compound 3.16 µM, first compound 10 µM): 30.2%; viability, T/C [11]: 41.3%; viability, T/C (second compound 10 µM, first compound 0.1 µM): 41.9%; viability, T/C [12]: 32.8%; viability, T/C (second compound 10 µM, first compound 1 µM): 40.2%; viability, T/C (second compound 10 µM, first compound 3.16 µM): 37.7%; viability, T/C (second compound 10 µM, first compound 10 µM): 39%

**Q.** Which IC50 (second compound 0.0316 µM) does the source give for CC[C@@]1(O)C(=O)OCc2c1cc1n(c2=O)Cc2cc3c(CN(C)C)c(O)ccc3nc2-1 + Cc1[nH]c2ccc(F)cc2c1-c1nc2c3cccnc3c3ncccc3c2[nH]1 here?
**A.** 54.2 nM

**Q.** And the IC50 (second compound 0.1 µM)?
**A.** 65.6 nM

**Q.** What about the IC50 (second compound 0.316 µM) of the same molecule?
**A.** 66.3 nM

**Q.** What about the IC50 (second compound 1 µM) of the same molecule?
**A.** 67.2 nM

**Q.** What about the IC50 (second compound 3.16 µM) of the same molecule?
**A.** 61 nM

**Q.** And the IC50 (second compound 10 µM)?
**A.** 69.3 nM

**Q.** What about the viability, T/C [13] of the same molecule?
**A.** 108%

**Q.** And the viability, T/C [14]?
**A.** 96.6%

**Q.** And the viability, T/C [15]?
**A.** 123%

**Q.** What about the viability, T/C [1] of the same molecule?
**A.** 69.8%

**Q.** What about the viability, T/C [16] of the same molecule?
**A.** 29%

**Q.** What about the viability, T/C [2] of the same molecule?
**A.** 9.65%

**Q.** And the viability, T/C [17]?
**A.** 90.7%

**Q.** What about the viability, T/C [18] of the same molecule?
**A.** 115%

**Q.** And the viability, T/C [19]?
**A.** 100%

**Q.** And the viability, T/C [3]?
**A.** 91.8%

**Q.** What about the viability, T/C [20] of the same molecule?
**A.** 26%

**Q.** What about the viability, T/C [4] of the same molecule?
**A.** 10.2%

**Q.** What about the viability, T/C [21] of the same molecule?
**A.** 104%

**Q.** And the viability, T/C [22]?
**A.** 120%

**Q.** What about the viability, T/C [23] of the same molecule?
**A.** 109%

**Q.** What about the viability, T/C [5] of the same molecule?
**A.** 84.7%

**Q.** What about the viability, T/C [24] of the same molecule?
**A.** 30.9%

**Q.** And the viability, T/C [6]?
**A.** 9.94%

**Q.** What about the viability, T/C [25] of the same molecule?
**A.** 115%

**Q.** And the viability, T/C [26]?
**A.** 97%

**Q.** What about the viability, T/C [27] of the same molecule?
**A.** 115%

**Q.** And the viability, T/C [7]?
**A.** 95.3%

**Q.** And the viability, T/C [28]?
**A.** 26.1%

**Q.** And the viability, T/C [8]?
**A.** 9.43%

**Q.** What about the viability, T/C [29] of the same molecule?
**A.** 115%

**Q.** And the viability, T/C [30]?
**A.** 108%

**Q.** And the viability, T/C [31]?
**A.** 103%

**Q.** And the viability, T/C [9]?
**A.** 70.8%

**Q.** And the viability, T/C [32]?
**A.** 34.1%

**Q.** What about the viability, T/C [10] of the same molecule?
**A.** 10.8%

**Q.** And the viability, T/C [33]?
**A.** 91.8%

**Q.** What about the viability, T/C [34] of the same molecule?
**A.** 98%

**Q.** What about the viability, T/C [35] of the same molecule?
**A.** 97.9%

**Q.** What about the viability, T/C [11] of the same molecule?
**A.** 84.7%

**Q.** And the viability, T/C [36]?
**A.** 33.8%

**Q.** What about the viability, T/C [12] of the same molecule?
**A.** 15.6%

**Q.** Which results are given for CCc1c2c(nc3ccc(O)cc13)-c1cc3c(c(=O)n1C2)COC(=O)[C@]3(O)CC + Cc1[nH]c2ccc(F)cc2c1-c1nc2c3cccnc3c3ncccc3c2[nH]1?
**A.** IC50 (second compound 0.0316 µM): 1.44 nM; IC50 (second compound 0.1 µM): 1.57 nM; IC50 (second compound 0.316 µM): 1.52 nM; IC50 (second compound 1 µM): 1.48 nM; IC50 (second compound 3.16 µM): 1.81 nM; IC50 (second compound 10 µM): 1.61 nM; viability, T/C [13]: 66.5%; viability, T/C [14]: 14.4%; viability, T/C [15]: 8.08%; viability, T/C [1]: 6.13%; viability, T/C [16]: 5.29%; viability, T/C [2]: 2.46%; viability, T/C [17]: 73.5%; viability, T/C [18]: 13.8%; viability, T/C [19]: 8.38%; viability, T/C [3]: 6.85%; viability, T/C [20]: 5.08%; viability, T/C [4]: 3.05%; viability, T/C [21]: 70.8%; viability, T/C [22]: 13.3%; viability, T/C [23]: 7.87%; viability, T/C [5]: 5.41%; viability, T/C [24]: 5.92%; viability, T/C [6]: 2.25%; viability, T/C [25]: 69.9%; viability, T/C [26]: 11.7%; viability, T/C [27]: 7.26%; viability, T/C [7]: 5.78%; viability, T/C [28]: 5.91%; viability, T/C [8]: 1.75%; viability, T/C [29]: 83.5%; viability, T/C [30]: 18.2%; viability, T/C [31]: 8.66%; viability, T/C [9]: 7.44%; viability, T/C [32]: 3.96%; viability, T/C [10]: 2.23%; viability, T/C [33]: 72.8%; viability, T/C [34]: 16.9%; viability, T/C [35]: 11.9%; viability, T/C [11]: 8.45%; viability, T/C [36]: 5.37%; viability, T/C [12]: 2.72%
